Reference: patent publication US20230144399A1, “QUINOLINE COMPOUNDS FOR THE TREATMENT AND PROPHYLAXIS OF HEPATITIS B VIRUS DISEASE” (Hoffmann-La Roche Inc., priority 2017, published 2023)

Key:
[1] = test system: HBV (extracellular HBsAg) in HBV-infected PHH; assay: Cryopreserved primary human hepatocytes (PHH) HBV infection assay; format: cell-based; details: Hepatitis B virus, Hepatocyte, 216 h, 9 days post-compound treatment, extracellular HBsAg by CLIA
Method: This assay is used to confirm the anti-HBV effect of the compounds in HBV PHH infection assay. Cryopreserved PHH (BioreclamationIVT, Lot YJM) was thawed at 37° C. and gently transferred into pre-warmed InVitroGRO HT medium (BioreclamationIVT, Cat. S03317). The mixture was centrifuged at 70 relative centrifugal force (RCF) for 3 minutes at RT, and the supernatant was discarded. Pre-warmed InVitroGRO CP medium (BioreclamationIVT, Cat #S03316) was added to the cell pellet to gently re-suspend cells. The cells were seeded at the density of 5.8×10^4 cells per well to collagen I coated 96-well plate (Gibco, Cat. A1142803) with the InVitroGRO CP medium. All plates were incubated at 37° C. with 5% CO2 and 85% humidity.
At 20 hours after plating, the medium was changed to PHH culture medium (Dulbecco's Modified Eagle Medium (DMEM)/F12 (1:1) (Gibco, Cat. 11320-033), 10% fetal bovine serum (Gibco Cat. 10099141), 100 U/mL penicillin, 100 μg/mL streptomycin (Gibco, Cat. 151401-122), 5 ng/mL human epidermal growth factor (Invitrogen Cat. PHG0311L), 20 ng/mL dexamethasone (Sigma, Cat. D4902) and 250 ng/mL human recombinant insulin (Gibco, Cat. 12585-014)). And the cells were incubated at 37° C. with 5% CO2 and 85% humidity for 4 hours. The medium was then changed to pre-warmed PHH culture medium containing 4% polyethylene glycol (PEG) MW8000 (Sigma, Cat. P1458-50ML) and 1% DMSO (Sigma, Cat. D2650). 5.8×10^6 genomic equivalents of HBV were added into the medium.
At 24 hours post-infection, the cells were gently washed with PBS and refreshed with PHH culture medium supplemented with 1% DMSO, and 0.25 mg/mL Matrix gel (Corning, Cat. 356237) at 200 μL per well. All plates were immediately placed in at 37° C. CO2 incubator. 24 hours later, serial dilutions of compounds made with DMSO were further diluted with the same culture medium (PHH culture medium supplemented with 1% DMSO and 0.25 mg/mL Matrix gel as described above) before they were added to the cells to reach desired final compound concentrations and 1% DMSO concentration. The medium containing the compounds were refreshed every three days.
At 9 days post-compound treatment, extracellular HBsAg level were measured with Chemiluminescence Immuno Assay (CLIA) kit (Autobio, HBsAg Quantitative CLIA). Extracellular HBV DNA was extracted by MagNA Pure 96 system (Roche) and then determined by quantitative PCR with the following primers and probe: […]
HBsAg IC50 and HBV DNA IC50 values were derived from the dose-response curve using 4 parameter logistic curve fit method.

[2] = test system: HBV cccDNA (HBeAg level) in HepDES19 cells; assay: Engineered HepDES19 primary screen assay (HBeAg as surrogate marker for cccDNA); format: cell-based; details: Hepatitis B virus, HepDES19, 120 h, read-out: IC50 (HBeAg level, HepDES19 primary screen assay)
Description: The assay was employed to screen for novel cccDNA inhibitors. HepDES19 is a cccDNA-producing cell line. In this cell line, HBeAg in the cell culture supernatant as surrogate marker, as HBeAg production depends on cccDNA level and activity. HepDES19 is an engineered cell line which contains a 1.1 unit length HBV genome, and pgRNA transcription from the transgene is controlled by Tetracycline (Tet). In the absence of Tet, pgRNA transcription will be induced, but HBV e antigen (HBeAg) could not be produced from this pgRNA due to very short leader sequence before the HBeAg start codon and the start codon is disrupted. Only after cccDNA is formed, the missing leader sequence and start codon mutation would be restored from the 3′-terminal redundancy of pgRNA, and then HBeAg could be synthesized. Therefore, HBeAg could be used as a surrogate marker for cccDNA (Zhou, T. et al., Antiviral Res.(2006), 72(2), 116-124; Guo, H. et al., J. Virol. (2007), 81(22), 12472-12484).
HepDES19 cells were seeded at 2×10^6 cells per T150 flask and cultured with the culture medium (Dulbecco's Modified Eagle Medium: Nutrient Mixture F-12 [DMEM-F12, Gibco Cat. 11320-82], 10% Fetal Bovine Serum [FBS, Clontech Cat. 631101], 0.1 mM Non-Essential Amino Acids Solution [NEAA, Gibco Cat. 11140-050], 50 μg/mL Penicillin-Streptomycin [PS, Invitrogen Cat. 15140-163], 500 μg/mL Geneticin [G418, Invitrogen Cat. 10131-027]) containing 3 μg/mL Tet (Sigma, Cat. 87128) for 5 days. Cells were then seeded at 4×10^6 cells per T150 in the same culture medium as described above in the absence of Tet for 8 days. Cells were then harvested and frozen at density of 2×10^6 cells per mL. For compound testing, the frozen cells were thawed and seeded into 96-well plates at a density of 6×10^4 cells per well. At 24 hrs after seeding, half log serial dilutions of compounds made with Dimethyl sulfoxide (DMSO, Sigma, Cat. D2650) were further diluted with the same culture medium as described above before they were added to the cells to reach desired final compound concentrations and 1% DMSO concentration. Plates were then incubated at 37° C. for another 5 days before measurement of HBeAg level and cell viability. Intracellular HBeAg level were measured with enzyme-linked immunosorbent assay (ELISA) kit (Shanghai Kehua Diagnostic Medical Products Co., Ltd). Cell viability was assessed using Cell Counting Kit-8 (Donjindo, Cat. CK04-20). IC50 values were derived from the dose-response curve using 4 parameter logistic curve fit method.
The compounds of the present invention were tested for their capacity to inhibit extracellular HBeAg level as described herein.

Row | SMILES | IC50 [1] [nM] | IC50 [2] [nM]
1 | O=C(O)[C@H]1C[C@@H](OCCOc2ccc(-c3ccc4cccc(Cl)c4n3)cc2)C1 [Example 1, Cis-3-[2-[4-(8-chloro-2-quinolyl)phenoxy]ethoxy]cyclobutanecarboxylic acid] | 15 | 8
2 | O=C(O)COCCOc1ccc(-c2ccc3cccc(Cl)c3n2)cc1 [Example 2, 2-[2-[4-(8-chloro-2-quinolyl)phenoxy]ethoxy]acetic acid] | 970 | 233
3 | COc1ccc(-c2ccc3cccc(Cl)c3n2)cc1C(F)(F)F [Example 3, 8-chloro-2-[4-methoxy-3-(trifluoromethyl)phenyl]quinoline] | 11300 | 141
4 | OCCOc1ccc(-c2ccc3cccc(Cl)c3n2)cc1C(F)(F)F [Example 4, 2-[4-(8-chloro-2-quinolyl)-2-(trifluoromethyl)phenoxy]ethanol] | 6770 | 2120
5 | O=C(O)[C@H]1C[C@@H](OCCOc2ccc(-c3ccc4cccc(Cl)c4n3)cc2C(F)(F)F)C1 [Example 5, Cis-3-[2-[4-(8-chloro-2-quinolyl)-2-(trifluoromethyl)phenoxy]ethoxy]cyclobutanecarboxylic acid] | 2950 | 3910
6 | O=C(O)COCCOc1ccc(-c2ccc3cccc(Cl)c3n2)cc1C(F)(F)F [Example 6, 2-[2-[4-(8-chloro-2-quinolyl)-2-(trifluoromethyl)phenoxy]ethoxy]acetic acid] | 8340 | 537
7 | N#Cc1cc(OCCO[C@H]2C[C@@H](C(=O)O)C2)ccc1-c1ccc2cccc(Cl)c2n1 [Example 7, Cis-3-[2-[4-(8-chloro-2-quinolyl)-3-cyano-phenoxy]ethoxy]cyclobutanecarboxylic acid] | – | 18400
8 | OCCOc1ccc(-c2ccc3ccc(C(F)(F)F)cc3n2)cc1 [Example 8, 2-[4-[7-(trifluoromethyl)-2-quinolyl]phenoxy]ethanol] | – | 18500
9 | COC(=O)[C@H]1C[C@@H](OCCOc2ccc(-c3ccc4ccc(C(F)(F)F)cc4n3)cc2)C1 [Example 9, Cis-methyl 3-[2-[4-[7-(trifluoromethyl)-2-quinolyl]phenoxy]ethoxy]cyclobutanecarboxylate] | – | 17800
10 | O=C(O)c1cc(-c2cccc(Br)c2)nc2cc(C(F)(F)F)ccc12 [Example 10, 2-(3-bromophenyl)-7-(trifluoromethyl)quinoline-4-carboxylic acid] | – | 19500
11 | Cc1cc(-c2cccc(Br)c2)nc2cc(C(F)(F)F)ccc12 [Example 11, 2-(3-bromophenyl)-4-methyl-7-(trifluoromethyl)quinoline] | 1660 | 2070
12 | O=C(O)C1CC(OCCOc2ccc(-c3cc(C(F)(F)F)c4cccc(Cl)c4n3)cc2)C1 (stereo not shown) [Example 12, 3-[2-[4-[8-chloro-4-(trifluoromethyl)-2-quinolyl]phenoxy]ethoxy]cyclobutanecarboxylic acid] | 3310 | 515
13 | O=C(O)COCCOc1ccc(-c2cc(C(F)(F)F)c3cccc(Cl)c3n2)cc1 [Example 13, 2-[2-[4-[8-chloro-4-(trifluoromethyl)-2-quinolyl]phenoxy]ethoxy]acetic acid] | 5500 | 1670
14 | COc1cc(-c2ccc(OCc3cccc(C(=O)O)c3)cc2)nc2c(Cl)cccc12 [Example 14, 3-[[4-(8-chloro-4-methoxy-2-quinolyl)phenoxy]methyl]benzoic acid] | – | 1860
15 | COc1cc2cccc(Cl)c2nc1-c1ccc(OCCO[C@H]2C[C@@H](C(=O)O)C2)cc1 [Example 15, Cis-3-[2-[4-(8-chloro-3-methoxy-2-quinolyl)phenoxy]ethoxy]cyclobutanecarboxylic acid] | – | 2530
16 | O=C(O)C1CC(OCCOc2cc3c(Cl)ccc(Cl)c3nc2-c2ccc(O)cc2)C1 (stereo not shown) [Example 16, 3-[2-[[5,8-dichloro-2-(4-hydroxyphenyl)-3-quinolyl]oxy]ethoxy]cyclobutanecarboxlic acid] | – | 3620
